Measurements from publication PMC3781062 (PLoS ONE, 2013).
Numbering of substitutions follows the chain as printed. Several values for one entry are separate records, joined by “and”; a condition that tells them apart may be missing. Equal entries are not always repeated.

Assays:
CHO-CPR cells = assay: PUVA cytotoxicity, neutral red uptake assay
Experimental: (§1) CHO cell lines stably over-expressing CYP1B1 and CPR were generated as previously described. CHO cells were maintained at 37°C/5% CO2 in Dulbecco’s Modified Eagle’s medium (DMEM) supplemented with 10% fetal bovine serum (FBS), 100 U/ml penicillin, 100 µg/ml streptomycin, 1 U/ml each of hypoxanthine and thymine (Invitrogen, Paisley-UK). Similar culture conditions, with the addition of G-418 (400 µg/ml), were used for CHO cells stably expressing CPR (CHO-CPR). CHO cells stably co-expressing CYP1B1 and CPR (CHO-1B1/CPR) were maintained at 37°C/5% CO2, but in hypoxanthine and thymine-free DMEM supplemented with 10% dialysed FBS and the appropriate selection (0.3 µM MTX and 400 µg/ml G-418). HaCaT keratinocytes were grown to 80% confluence in DMEM supplemented with 10% fetal bovine serum (FBS), 100 U/ml penicillin, 100 µg/ml streptomycin and 2 mM glutamine. Cells were harvested and microsomes prepared as described previously. HaCaT cell microsomes and microsomes from human skin biopsies obtained from peri-lesional skin from psoriasis patients, [13] were used to investigate functional CYP1B1 expression using EROD assays.
(§2) To investigate CHO cell sensitivity to UVA and PUVA, actively dividing cells (10000 cells/well) were seeded in 96-well plates (Iwaki, Japan) in quadruplicates in 200 µl culture medium and allowed to grow for 18–20 h. Cells were irradiated at room temperature with a UVA source (2×6 ft Cosmolux 15500/100 W, 1.7 mW/cm^2 (320–400 nm; λmax = 365 nm), Germany) through a 4 mm thick window glass filter at multiple UVA doses (0, 1.5, 4.0 and 7.5 J/cm^2), monitoring irradiance with a Waldmann UV meter equipped with UVA detector. Control samples were kept in the dark under the same conditions. […] Control samples were pre-incubated with solvent and kept in the dark under the same conditions. After each treatment, fresh culture medium was added and cells returned to an incubator at 37°C/5%CO2 for 24 h. Cell viability was assessed using neutral red uptake assays; quadruplicate replicates of each treatment were performed, and each experiment repeated twice. PUVA cytotoxicity data was assessed by non-linear regression analysis for dose-response curves (IC50) fitting (GraFit software program, UK) and unpaired Student’s t-test (Statview 4.1 software).

CHO cells = assay: PUVA cytotoxicity, neutral red uptake assay
Experimental: as §1, §2

CYP1B1*3 = CYP1B1*3 (Homo sapiens, UniProt Q16678, form not given); assay: Inhibition of EROD activity of CYP1B1 allelic variant co-expressed with CPR; format: biochemical; conditions: probe 7-ethoxyresorufin (EROD)
Experimental: (§3) Construction of CYP1B1 and CPR expression plasmids has been described previously. The CYP1B1 alleles CYP1B1*1, CYP1B1*3 and CYP1B1*4 were co-expressed with CPR in E. coli JM109 cells and membranes prepared as described previously. P450 content was determined spectrophotometrically, and CPR activity estimated by cytochrome c reduction. […] Solubilised protein lysates or human liver microsomes were separated by SDS-PAGE, transferred onto Hybond-ECL nitrocellulose membranes (Amersham, UK) and probed with CYP1B1 (BD Gentest, Woburn, MA) and CPR antibodies, as previously described.
(§4) EROD activity was determined as previously described, but modified in 96-well plate format with quadruplicate replicates, using a Fluoroskan fluorescence reader (Labsystems, Cambridge, UK). […] Calibration curves were constructed with authentic resorufin standards and linear regression analysis used to calculate the amount of resorufin formed in each test sample. Enzyme kinetics for CYP1B1-catalysed EROD activity were determined at substrate concentrations from 0.002 to 2 µM. Apparent Km and Vmax values were estimated by non-linear regression analysis (GraFit software program, UK) of the substrate concentration [S]-enzyme activity [V], fitting data to a Michaelis-Menten model.

CYP1B1*4 = target: T1, CYP1B1*4 (Homo sapiens, UniProt Q16678, L432V/N453S); assay: as above; format: biochemical; conditions: mean ± SD of triplicate determinations, read-out: IC50 against CYP1B1-dependent EROD activity (converted)
T1 construct: made in house; host or cells: E. coli JM109
T1 sequence (Q16678 1-543 L432V/N453S): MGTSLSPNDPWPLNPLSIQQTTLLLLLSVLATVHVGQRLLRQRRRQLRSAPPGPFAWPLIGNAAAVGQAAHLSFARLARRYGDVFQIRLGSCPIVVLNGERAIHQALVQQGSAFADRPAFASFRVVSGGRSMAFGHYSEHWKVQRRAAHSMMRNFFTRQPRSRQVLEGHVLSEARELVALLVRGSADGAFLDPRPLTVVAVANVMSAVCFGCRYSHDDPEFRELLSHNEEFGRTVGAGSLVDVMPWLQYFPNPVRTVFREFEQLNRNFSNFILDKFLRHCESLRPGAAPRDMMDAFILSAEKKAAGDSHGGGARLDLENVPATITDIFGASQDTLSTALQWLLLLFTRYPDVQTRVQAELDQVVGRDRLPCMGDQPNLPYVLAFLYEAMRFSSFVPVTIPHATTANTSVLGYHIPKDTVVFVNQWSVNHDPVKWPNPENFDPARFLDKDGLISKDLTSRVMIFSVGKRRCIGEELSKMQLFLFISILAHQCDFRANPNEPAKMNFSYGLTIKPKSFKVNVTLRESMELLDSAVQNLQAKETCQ
Experimental: as §3, §4

CYP1B1*1 = CYP1B1*1 (Homo sapiens, UniProt Q16678); assay: as above; format: biochemical; conditions: IC50 against CYP1B1-dependent EROD activity, mean ± SD of triplicate determinations
Experimental: as §3, §4

CYP1B1 [1] = target: T2, CYP1B1 (Homo sapiens, UniProt Q16678, L432V); assay: Inhibition of CYP1B1-dependent EROD activity, E. coli membranes co-expressing CYP1B1 and CPR; format: biochemical
T2 construct: made in house; host or cells: E. coli JM109
T2 sequence (Q16678 1-543 L432V): T1 sequence (Q16678 1-543 L432V/N453S) with S453N
Experimental: as §4

CYP1A1 = target: T3, CYP1A1 (Homo sapiens, UniProt P04798); conditions: α-naphthoflavone 5 µM; recombinant CYP1A1
T3 sequence (P04798 1-512): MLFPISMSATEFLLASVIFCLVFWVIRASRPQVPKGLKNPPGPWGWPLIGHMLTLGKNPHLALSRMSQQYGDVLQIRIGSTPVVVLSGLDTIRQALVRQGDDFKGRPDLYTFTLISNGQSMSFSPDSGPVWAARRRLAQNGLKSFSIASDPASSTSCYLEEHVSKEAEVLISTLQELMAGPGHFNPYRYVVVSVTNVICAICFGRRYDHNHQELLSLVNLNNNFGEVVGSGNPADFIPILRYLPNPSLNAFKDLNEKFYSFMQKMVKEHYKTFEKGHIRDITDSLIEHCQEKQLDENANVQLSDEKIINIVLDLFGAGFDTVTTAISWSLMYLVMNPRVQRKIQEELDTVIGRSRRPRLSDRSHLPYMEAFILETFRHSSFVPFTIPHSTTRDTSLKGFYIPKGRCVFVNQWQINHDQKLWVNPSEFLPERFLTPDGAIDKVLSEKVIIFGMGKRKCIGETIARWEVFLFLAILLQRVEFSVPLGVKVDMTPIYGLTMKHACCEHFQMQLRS
Experimental: (§5) After 3 min 37°C pre-incubation, reactions were initiated by 40 µl 5 mM NADPH containing 30 mM glutathione (GSH) in 50 mM PB (pH 7.4). Reactions were incubated for 10 min in a shaking water bath at 37°C, terminated by the addition of 100 µl ice-cold methanol containing 3% perchloric acid, and placed on ice for 10 min. Zero-time controls were terminated before the addition of P450 membranes; no-NADPH control reactions were initiated with 20 µl 50 mM PB (pH 7.4) containing 30 mM GSH. Samples were vortexed for 1 min, centrifuged at 12 000 rpm for 5 min, supernatants collected and analysed by HPLC analysis [28].

human liver microsomes = assay: 8-MOP metabolism (substrate depletion) in human liver microsomes; format: in vitro ADME; conditions: α-naphthoflavone 5 µM
Experimental: as §5

CYP1B1 [2] = conditions: α-naphthoflavone 5 µM; recombinant CYP1B1
Experimental: as §5

## COc1c2occc2cc2ccc(=O)oc12 [8-MOP, 8-methoxypsoralen]
CHO-CPR cells; CHO-CPR cells, 8-MOP alone
  Cytotoxicity of 8-MOP alone (no UVA): not cytotoxic
CHO-CPR cells; Cricetulus griseus, light or radiation study, read-out: IC50 for 8-MOP in the presence of UVA
  IC50: 0.54 µg/mL and 2.5 µM
CHO cells; CHO cells, 8-MOP 0–5 µM, dark
  Cytotoxicity of 8-MOP alone (no UVA): no significant cytotoxicity
CHO cells; Cricetulus griseus, CHO, light or radiation study, read-out: IC50 for 8-MOP in the presence of UVA
  IC50: 0.461 µg/mL and 2.13 µM
CYP1B1*3
  IC50 at 3 min: 0.326 µg/mL and 1.5 µM
CYP1B1*4
  IC50: 601 nM and 600 nM
CYP1B1*1
  IC50: 1710 nM and 1700 nM
CYP1B1 [1]; 7-ethoxyresorufin at Km concentration, estimated
  IC50: 2000 ± 100 nM
CYP1B1 [1]; Lineweaver-Burk plots, six 8-MOP and four 7-ethoxyresorufin concentrations
  Mode of inhibition of CYP1B1: mixed inhibition
CYP1B1 [1]; n = 3
  Ki: 3580 ± 1000 nM

## O=c1cc(-c2ccccc2)oc2c1ccc1ccccc12 [α-naphthoflavone]
CYP1A1
  8-MOP metabolism in presence of inhibitor: 53 % of control levels
Human liver microsomes
  8-MOP metabolism in presence of inhibitor: 59 % of control levels
CYP1B1 [2]
  8-MOP metabolism in presence of inhibitor: 62 % of control levels
